The results in this text go back to patent EP2948433B1, “ATGLISTATIN AS LIPASE INHIBITOR” (Technische Universität Graz, priority 2013, dated 2014).

The subject of test [1] is WAT organ cultures. As to the kind of experiment: Lipolysis of isolated WAT organ cultures. The format is cell-based, C57BI6 mice. The following applies: 8 h incubation. On the procedure:
• Figure 1. Structure of compounds 1 to 3 (reference) and compound 4 (atglistatin) and effect on ATGL activity. For determination of lipase activity, lysates of E. coli overexpressing recombinant strep-tagged ATGL and CGI-58 were incubated with a substrate containing radiolabeled [9,10-3H(N)]-triolein. Subsequently, FA were extracted and quantified by liquid scintillation counting. Lysates of cells expressing empty vector were set as blank. Inhibitors were solubilized in DMSO and added at the indicated concentrations. DMSO alone was used as negative control. (A) Structure and IC50 values of compounds 1-4. (B) Dose-dependent inhibition of ATGL in the presence of compound 3 and 4. […] (C) Lineweaver-Burk plots for kinetic analysis of ATGL inhibition. Experiments were performed at varying concentrations of substrate (0.05 - 3 mM) in presence and absence of compound 4 (Atglistatin). […] Data are presented as mean +/-S.D. of triplicate determinations. Data for compound 4 are representative for at least three independent experiments. • Figure 2. Selectivity of Atglistatin. Lipase activity of ATGL, HSL, lipoprotein lipase, and pancreatic lipase was determined using triolein as substrate. MGL activity was detected in the presence of rac-(1,3)-monooleoylglycerol as substrate. Inhibitors were solubilized in DMSO and added at the indicated concentrations. DMSO alone was used as negative control. (A) Dose-dependent inhibition of TG hydrolase activity in WAT lysates obtained from wild-type and ATGL-ko mice. (B) Inhibition of TG hydrolase activity in wild-type WAT lysates by Atglistatin (40 µM) and by the HSL inhibitor Hi 76-0079 (20 µM). (C) Effect of Atglistatin on murine MGL (purified from E. coli), and murine HSL (overexpressed in COS-7 lysates) activity. […] The release of FA (A) and glycerol (B) in the media was determined using commercial kits. […] At the indicated timepoints blood was taken retroorbitally and plasma parameters were measured using commercial kits. […] 8 h after gavage blood was taken retroorbitally and plasma parameters were measured using commercial kits. […]

Test [2] deals with T1, purified bovine LPL (Bos taurus, UniProt P11151).
T1 construct: purchased Sigma
T1 sequence (P11151 29-478): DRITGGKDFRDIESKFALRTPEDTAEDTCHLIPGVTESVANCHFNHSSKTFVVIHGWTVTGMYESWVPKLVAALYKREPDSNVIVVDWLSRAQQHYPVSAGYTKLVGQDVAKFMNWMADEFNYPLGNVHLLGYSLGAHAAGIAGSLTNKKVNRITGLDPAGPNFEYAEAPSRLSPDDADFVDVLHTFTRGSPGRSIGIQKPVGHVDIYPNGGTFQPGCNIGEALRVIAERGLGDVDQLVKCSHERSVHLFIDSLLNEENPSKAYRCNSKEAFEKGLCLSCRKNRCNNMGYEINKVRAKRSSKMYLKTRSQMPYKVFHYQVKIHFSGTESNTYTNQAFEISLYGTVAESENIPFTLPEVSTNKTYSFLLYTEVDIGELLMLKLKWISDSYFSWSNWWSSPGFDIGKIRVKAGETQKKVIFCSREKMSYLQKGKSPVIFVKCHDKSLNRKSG
In words: Lipoprotein lipase activity, purified enzyme, triolein substrate. The following applies: Fig. 2D. The class given is biochemical. The protocol: (§1) • Figure 1. Structure of compounds 1 to 3 (reference) and compound 4 (atglistatin) and effect on ATGL activity. For determination of lipase activity, lysates of E. coli overexpressing recombinant strep-tagged ATGL and CGI-58 were incubated with a substrate containing radiolabeled [9,10-3H(N)]-triolein. Subsequently, FA were extracted and quantified by liquid scintillation counting. Lysates of cells expressing empty vector were set as blank. Inhibitors were solubilized in DMSO and added at the indicated concentrations. DMSO alone was used as negative control. (A) Structure and IC50 values of compounds 1-4. (B) Dose-dependent inhibition of ATGL in the presence of compound 3 and 4. […] (C) Lineweaver-Burk plots for kinetic analysis of ATGL inhibition. Experiments were performed at varying concentrations of substrate (0.05 - 3 mM) in presence and absence of compound 4 (Atglistatin). […] Lipase activity of ATGL, HSL, lipoprotein lipase, and pancreatic lipase was determined using triolein as substrate. MGL activity was detected in the presence of rac-(1,3)-monooleoylglycerol as substrate. […] The release of FA (A) and glycerol (B) in the media was determined using commercial kits. […] At the indicated timepoints blood was taken retroorbitally and plasma parameters were measured using commercial kits. […] 8 h after gavage blood was taken retroorbitally and plasma parameters were measured using commercial kits. […]

Test [3] has as its system TG hydrolase activity in lysates obtained from ATGL-ko animals. In words: TG hydrolase activity in WAT lysates of ATGL-ko mice. The format is biochemical. The following applies: at concentrations ≥ 20 µM. On the procedure:
as §1

In the case of `CN(C)C(=O)Nc1cccc(-c2ccc(N(C)C)cc2)c1` [Atglistatin, atglistatin], the basal lipolysis entry in test [1] (dose dependent (0-50 µM)) was “reduced basal lipolysis”. Besides, in test [1] (up to, 10 µM forskolin), the “reduction of forskolin-stimulated FA release” value is “up to 72%” and the “reduction of forskolin-stimulated glycerol release” value is no more than 66%. In addition, the “effect on lipoprotein lipase” value in test [2] is recorded as “only minor effects”. Further, the “effect on the residual TG hydrolase activity in ATGL-ko lysates” value in test [3] was “moderate but significant effect”.
